Data taken from ChEMBL document CHEMBL3286220, “2,4-Bis(4-hydroxybenzyl)phenol inhibits heat shock transcription factor 1 and sensitizes lung cancer cells to conventional anticancer modalities” (J Nat Prod, 2014).
Positions count from the first letter of the chain named. The source made the active and inactive calls. The rule behind the calls is not given here.

How the values were obtained:
[1] = target: T1, Heat shock factor protein 1 (Homo sapiens) (UniProt Q00613); assay: Induction of HSP1 dephosphorylation at S230, S303/307, and S326 in human NCI-H460 cells after 24 hrs by Western blot analysis; assay type: cell-based
T1 sequence (whole entry): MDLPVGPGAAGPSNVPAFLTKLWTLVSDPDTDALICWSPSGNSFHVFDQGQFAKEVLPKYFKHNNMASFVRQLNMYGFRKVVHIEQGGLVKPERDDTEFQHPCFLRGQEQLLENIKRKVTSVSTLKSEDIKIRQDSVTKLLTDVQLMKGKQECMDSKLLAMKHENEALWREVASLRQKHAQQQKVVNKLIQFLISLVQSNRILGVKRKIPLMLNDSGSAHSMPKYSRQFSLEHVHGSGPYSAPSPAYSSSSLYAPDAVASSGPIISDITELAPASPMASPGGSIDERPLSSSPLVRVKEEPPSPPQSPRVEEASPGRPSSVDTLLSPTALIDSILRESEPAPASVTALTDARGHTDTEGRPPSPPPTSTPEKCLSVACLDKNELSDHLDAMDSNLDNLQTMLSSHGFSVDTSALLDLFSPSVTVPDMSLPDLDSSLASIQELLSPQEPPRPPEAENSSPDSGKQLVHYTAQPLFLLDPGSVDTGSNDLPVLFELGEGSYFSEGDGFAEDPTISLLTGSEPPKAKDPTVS

NCI-H460 [2] = assay: Induction of apoptosis in human NCI-H460 cells assessed as cleaved PARP and caspase 3 level at 20 uM; assay type: functional, cell-based; conditions: TDE = time-dependent effect
NCI-H460 [3] = assay: Cytotoxicity against human NCI-H460 cells expressing siHSF1 up to 100 uM after 24 hrs by MTT assay; assay type: functional, cell-based
[4] = target: T1, Heat shock factor protein 1 (Homo sapiens); assay: Reduction of HSP1 stability in human NCI-H460 cells assessed as protein degradation at 10 uM up to 9 hrs by Western blot analysis in presence of cyclohexamide; assay type: cell-based
[5] = target: T1, Heat shock factor protein 1 (Homo sapiens); assay: Inhibition of HSP1 activity in human NCI-H460 cells assessed as reduction of HSP25 protein expression after 12 hrs by Western blot analysis; assay type: cell-based
[6] = target: T1, Heat shock factor protein 1 (Homo sapiens); assay: Inhibition of HSP1 activity in human NCI-H460 cells assessed as reduction of HSP27 mRNA expression at 1 to 20 uM after 12 hrs by qRT-PCR analysis; assay type: cell-based
NCI-H460 [7] = assay: Induction of apoptosis in human NCI-H460 cells assessed as cyclin D and cyclin E level after 12 hrs; assay type: functional, cell-based
NCI-H460 [8] = assay: Induction of apoptosis in human NCI-H460 cells assessed as cyclin D and cyclin E level at 20 uM; assay type: functional, cell-based; conditions: TDE = time-dependent effect
[9] = target: T1, Heat shock factor protein 1 (Homo sapiens); assay: Inhibition of HSP1 activity in human NCI-H460 cells assessed as reduction of HSP70 protein expression at 20 uM by Western blot analysis; assay type: cell-based; conditions: TDE = time-dependent effect
NCI-H460 [10] = assay: Cytotoxicity against HSF1 deficient human NCI-H460 cells up to 100 uM after 24 hrs by MTT assay; assay type: functional, cell-based
[11] = target: T1, Heat shock factor protein 1 (Homo sapiens); assay: Inhibition of HSP1 activity in human NCI-H460 cells assessed as reduction of HSP70 mRNA expression at 1 to 20 uM after 12 hrs by qRT-PCR analysis; assay type: cell-based
NCI-H460 [12] = assay: Induction of apoptosis in human NCI-H460 cells assessed as cleaved PARP and caspase 3 level after 12 hrs; assay type: functional, cell-based
[13] = target: T1, Heat shock factor protein 1 (Homo sapiens); assay: Inhibition of HSP1 activity in human NCI-H460 cells assessed as reduction of hsp70 promoter activity after 12 hrs by luciferase reporter gene assay; assay type: cell-based
[14] = target: T1, Heat shock factor protein 1 (Homo sapiens); assay: Inhibition of HSP1 activity in human NCI-H460 cells assessed as reduction of HSP70 mRNA expression at 20 uM up to 24 hrs by qRT-PCR analysis; assay type: cell-based
[15] = target: T1, Heat shock factor protein 1 (Homo sapiens); assay: Inhibition of HSP1 activity in human NCI-H460 cells assessed as reduction of HSP27 mRNA expression at 20 uM up to 24 hrs by qRT-PCR analysis; assay type: cell-based
[16] = target: T1, Heat shock factor protein 1 (Homo sapiens); assay: Inhibition of HSP1 activity in human NCI-H460 cells assessed as reduction of HSP1 protein expression after 12 hrs by Western blot analysis; assay type: cell-based
NCI-H460 [17] = assay: Cytotoxicity against human NCI-H460 cells up to 100 uM after 24 hrs by MTT assay; assay type: functional, cell-based
[18] = target: T1, Heat shock factor protein 1 (Homo sapiens); assay: Inhibition of HSP1 activity in human NCI-H460 cells assessed as reduction of HSP1 mRNA expression at 1 to 20 uM after 12 hrs by qRT-PCR analysis; assay type: cell-based
[19] = target: T1, Heat shock factor protein 1 (Homo sapiens); assay: Inhibition of HSP1 activity in human NCI-H460 cells assessed as reduction of HSP25 protein expression at 20 uM by Western blot analysis; assay type: cell-based; conditions: TDE = time-dependent effect
[20] = target: T1, Heat shock factor protein 1 (Homo sapiens); assay: Inhibition of HSP1 activity in human NCI-H460 cells assessed as reduction of hsp25 promoter activity after 12 hrs by luciferase reporter gene assay; assay type: cell-based
NCI-H460 [21] = assay: Induction of apoptosis in human NCI-H460 cells expressing siHSF1 assessed as cleaved PARP and caspase 3 level up to 20 uM after 12 hrs; assay type: functional, cell-based
[22] = test system: T2, Heat shock factor protein 1 (Homo sapiens), Q00613 [S326E]; assay: Reduction of HSP1 phosphorylated at S326E mutant stability in human NCI-H460 cells up to 7.5 hrs by Western blot analysis in presence of cyclohexamide; assay type: cell-based
T2 sequence (whole entry): T1 sequence (whole entry) with S326E

[23] = target: T1, Heat shock factor protein 1 (Homo sapiens); assay: Inhibition of HSP1 activity in human NCI-H460 cells assessed as reduction of HSP1 mRNA expression at 20 uM up to 24 hrs by qRT-PCR analysis; assay type: cell-based
[24] = target: T1, Heat shock factor protein 1 (Homo sapiens); assay: Inhibition of HSP1 activity in human NCI-H460 cells assessed as reduction of HSP1 protein expression at 20 uM by Western blot analysis; assay type: cell-based; conditions: TDE = time-dependent effect
[25] = target: T3, Heat shock factor protein 1 (Mus musculus) (UniProt P38532); assay: Inhibition of HSP1 activity in mouse MEF assessed as reduction of hsp25 promoter activity at 5 to 100 uM after 12 hrs by luciferase reporter gene assay
T3 sequence (whole entry): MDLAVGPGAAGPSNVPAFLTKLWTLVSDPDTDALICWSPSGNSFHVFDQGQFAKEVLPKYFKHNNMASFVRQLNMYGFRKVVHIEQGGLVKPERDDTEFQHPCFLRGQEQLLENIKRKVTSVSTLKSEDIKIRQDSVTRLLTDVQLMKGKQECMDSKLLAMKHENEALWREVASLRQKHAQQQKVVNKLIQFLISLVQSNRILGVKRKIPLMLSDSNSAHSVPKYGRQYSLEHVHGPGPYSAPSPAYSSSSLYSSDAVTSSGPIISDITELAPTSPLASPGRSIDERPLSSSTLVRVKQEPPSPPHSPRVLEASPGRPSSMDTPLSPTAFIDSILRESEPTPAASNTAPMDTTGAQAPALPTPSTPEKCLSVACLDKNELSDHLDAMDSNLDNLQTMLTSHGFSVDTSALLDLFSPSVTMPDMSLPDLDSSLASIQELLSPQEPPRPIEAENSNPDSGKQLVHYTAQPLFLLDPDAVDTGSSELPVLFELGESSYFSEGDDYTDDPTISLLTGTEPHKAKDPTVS

[26] = test system: T4, Heat shock factor protein 1 (Homo sapiens), Q00613 [S326A]; assay: Reduction of HSP1 dephosphorylated at S326A mutant stability in human NCI-H460 cells up to 7.5 hrs by Western blot analysis in presence of cyclohexamide; assay type: cell-based
T4 sequence (whole entry): T1 sequence (whole entry) with S326A

[27] = target: T3, Heat shock factor protein 1 (Mus musculus); assay: Inhibition of HSP1 activity in mouse MEF assessed as reduction of hsp70 promoter activity at 5 to 100 uM after 12 hrs by luciferase reporter gene assay
[28] = target: T1, Heat shock factor protein 1 (Homo sapiens); assay: Inhibition of HSP1 activity in human NCI-H460 cells assessed as reduction of HSP70 protein expression after 12 hrs by Western blot analysis; assay type: cell-based
[29] = target: T1, Heat shock factor protein 1 (Homo sapiens); assay: Reduction of HSP1 stability in human NCI-H460 cells assessed as protein degradation at 10 ug/mL up to 9 hrs by Western blot analysis; assay type: cell-based

## Oc1ccc(Cc2ccc(O)c(Cc3ccc(O)cc3)c2)cc1
[1]
  Activity: Dose-dependent effect
NCI-H460 [2]
  Activity: tde
NCI-H460 [3]
  Activity: inactive
[4]
  Activity: Active
[5]
  inhibition: Dose-dependent effect
[6]
  inhibition: Active
NCI-H460 [7]
  Activity: Dose-dependent effect
NCI-H460 [8]
  Activity: tde
[9]
  inhibition: tde
NCI-H460 [10]
  Activity: Active
[11]
  inhibition: Active
NCI-H460 [12]
  Activity: Dose-dependent effect
[13]
  inhibition: Dose-dependent effect
[14]
  inhibition: Active
[15]
  inhibition: Active
[16]
  inhibition: Dose-dependent effect
NCI-H460 [17]
  Activity: Active
[18]
  inhibition: inactive
[19]
  inhibition: tde
[20]
  inhibition: Dose-dependent effect
NCI-H460 [21]
  Activity: Active
[22]
  Activity: Active
[23]
  inhibition: inactive
[24]
  inhibition: tde
[25]
  inhibition: inactive
[26]
  Activity: Active
[27]
  inhibition: inactive
[28]
  inhibition: Dose-dependent effect

## C[C@@H]1C[C@@H]([C@H](O)CC2CC(=O)NC(=O)C2)C(=O)[C@@H](C)C1
[29]
  Activity: Active
